In article PMC4076079, “Selective inhibitors of a PAF biosynthetic enzyme lysophosphatidylcholine acyltransferase 2” (Journal of Lipid Research, 2014):
Several values for one entry are separate records, joined by “and”; a condition that tells them apart may be missing. Identical values can stand only once.

How the values were obtained:
Type in all cases: biochemical
hLPCAT2 [1] = biological target: T1, hLPCAT2 (Homo sapiens, UniProt Q7L5N7); assay: lyso-PAFAT (acetyltransferase) activity assay, PAF product by LC-MS/MS; settings: 0, 0.2, 0.6, 2, 6 and 20 μM of each compound in triplicate; LC-MS/MS; read-out: IC50, product PAF, enzyme hLPCAT2
T1 construct: expressed in transfected cells; host or cells: CHO-S-PAFR cells (microsomal fraction), with or without mcPAF stimulation
T1 sequence (Q7L5N7 1-544): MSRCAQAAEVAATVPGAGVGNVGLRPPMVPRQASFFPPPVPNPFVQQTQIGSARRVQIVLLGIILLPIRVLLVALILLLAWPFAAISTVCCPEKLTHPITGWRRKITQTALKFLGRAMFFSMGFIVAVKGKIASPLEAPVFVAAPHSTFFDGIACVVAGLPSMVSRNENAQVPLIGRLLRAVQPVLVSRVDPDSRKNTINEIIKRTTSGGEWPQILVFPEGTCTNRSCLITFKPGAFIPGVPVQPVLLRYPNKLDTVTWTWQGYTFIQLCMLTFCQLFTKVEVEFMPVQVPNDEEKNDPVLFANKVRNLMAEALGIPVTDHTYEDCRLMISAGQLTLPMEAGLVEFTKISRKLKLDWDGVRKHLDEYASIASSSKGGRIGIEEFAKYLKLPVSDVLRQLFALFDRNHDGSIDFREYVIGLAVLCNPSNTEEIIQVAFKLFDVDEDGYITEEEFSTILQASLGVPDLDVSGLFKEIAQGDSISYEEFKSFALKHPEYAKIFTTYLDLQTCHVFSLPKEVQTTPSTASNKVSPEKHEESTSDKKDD
Experimental: (§1) Microsomal protein fractions (0.5 μg) supplemented with the indicated compound concentrations were added to the reaction mixture containing 100 mM Tris-HCl (pH 7.4), 1 μM CaCl2, 0.015% Tween-20, and two substrates. For acetyltransferase activity, the substrates were 1 mM acetyl-CoA and 5 μM d4-lyso-PAF; for the acyltransferase activity of LPCAT1 or LPCAT2, the substrates were, respectively, palmitoyl-CoA and d31-16:0 LPC or arachidonoyl-CoA and d4-lyso-PAF (all 5 μM). Each lysophospholipid contained fatty acid at the sn-1 position. After incubation at 37°C for 5 min, the reactions were stopped by adding 300 μl methanol containing 17:0 LPC or 14:0/14:0 PC as an internal standard. Deuterium-labeled products were analyzed by LC-MS/MS (Waters, Milford, MA and Thermo Scientific, Waltham, MA). […]
(§2) Steps 2 to 5 screening: 96-well plate assay
(§3) Acetyltransferase and acyltransferase assays were developed in 96-well plates. The microsomal hLPCAT2, obtained from mcPAF-stimulated CHO-S-PAFR cells was used in steps 1, 2, and 5. The microsomal hLPCAT1 obtained from unstimulated CHO-S cells was used in steps 3 to 5. Each well of the 96-well plates contained 30 µl of 15 µg/ml protein, 600 nl of 2 mM compound, 30 µl buffer C, and two substrates (Fig. 1B and C).
(§4) Substrate concentrations were as follows: acetyl-CoA, 250 or 1000 µM acetyl-CoA; […]
(§5) arachidonoyl-CoA, 5 µM; palmitoyl-CoA, 5 µM; d4-lyso-PAF, 5 µM; and d31-LPC, 5 µM.
For step 5, compound concentrations were 0, 0.167, 0.67, 2, 6.7, and 20 µM. The deuterium-labeled products were measured by LC-MS/MS. Percentage inhibition (steps 2 to 4) or IC50 (step 5) was used as the hit criterion.
Step 6 screening: BSA assay
The acetyltransferase assay was performed with 20 µM of each compound and microsomal hLPCAT2 from step 1. The assay mixture contained 0.4% BSA and two substrates for lyso-PAFAT activity: 1 mM acetyl-CoA and 5 µM d4-lyso-PAF. Percentage inhibition values were determined.
(§6) Step 7 screening: species-specific differences
(§7) To evaluate the effects on the activity of mouse or human LPCAT1 and LPCAT2, each microsomal fraction was obtained using CHO-S-PAFR cells with or without mcPAF (200 nM) stimulation for 5 min. Acetyltransferase and acyltransferase assays were performed with 20 µM of each compound. Percentage inhibition was calculated in each

hLPCAT1 [2] = biological target: T2, hLPCAT1 (Homo sapiens, UniProt Q8NF37); assay: as above; settings: 0, 0.2, 0.6, 2, 6 and 20 μM of each compound in triplicate; LC-MS/MS; read-out: IC50, product PAF, enzyme hLPCAT1
T2 construct: expressed in transfected cells
T2 sequence (Q8NF37 1-534): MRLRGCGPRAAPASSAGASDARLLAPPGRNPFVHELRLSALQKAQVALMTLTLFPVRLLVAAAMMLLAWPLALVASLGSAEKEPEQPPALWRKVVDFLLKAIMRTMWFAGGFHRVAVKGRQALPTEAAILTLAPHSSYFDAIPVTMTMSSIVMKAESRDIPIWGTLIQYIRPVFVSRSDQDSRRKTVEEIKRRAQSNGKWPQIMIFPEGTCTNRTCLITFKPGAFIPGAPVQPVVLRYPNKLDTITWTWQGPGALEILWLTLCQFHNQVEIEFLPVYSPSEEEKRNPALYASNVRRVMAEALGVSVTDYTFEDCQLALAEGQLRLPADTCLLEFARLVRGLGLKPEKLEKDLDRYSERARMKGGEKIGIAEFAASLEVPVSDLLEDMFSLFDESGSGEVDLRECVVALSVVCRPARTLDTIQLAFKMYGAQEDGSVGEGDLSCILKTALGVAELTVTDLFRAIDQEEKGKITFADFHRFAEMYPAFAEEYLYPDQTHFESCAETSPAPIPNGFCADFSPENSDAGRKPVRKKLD
Experimental: as §1, §2, §3, §4, §5
(§8) For step 5, compound concentrations were 0, 0.167, 0.67, 2, 6.7, and 20 µM. The deuterium-labeled products were measured by LC-MS/MS. Percentage inhibition (steps 2 to 4) or IC50 (step 5) was used as the hit criterion. […]
as §6, §7

hLPCAT2 [3] = biological target: T1, hLPCAT2; assay: acyltransferase activity assay, 16:0/20:4 alkyl-PC product by LC-MS/MS; settings: 0, 0.2, 0.6, 2, 6 and 20 μM of each compound in triplicate; LC-MS/MS; read-out: IC50, product Alkyl-PC (16:0/20:4 alkyl-PC), enzyme hLPCAT2
Experimental: as §1, §2, §3, §4, §5, §8, §6, §7

hLPCAT1 [4] = biological target: T2, hLPCAT1; assay: acyltransferase activity assay, DPPC product by LC-MS/MS; settings: 0, 0.2, 0.6, 2, 6 and 20 μM of each compound in triplicate; LC-MS/MS; read-out: IC50, product DPPC, enzyme hLPCAT1
Experimental: as §1, §2, §3, §4, §5, §8, §6, §7

SMILES | IC50 (hLPCAT2 [1]) | IC50 (hLPCAT1 [2]) | IC50 (hLPCAT2 [3]) | IC50 (hLPCAT1 [4])
CCN1C(=O)C=CC1=O [N-ethylmaleimide (NEM), N-ethylmaleimide, reference compound] | 106 µM | 1720 µM | 69.6 µM | 1850 µM
COc1ccc(Cl)cc1N1C(=O)C(Cl)=C(Cl)C1=O [TSI-03] | > 10 µM and 12.1 µM | 9.38 µM | 17.1 µM | > 20 µM
COc1ccc(Cl)cc1N1C(=O)C(Cl)=C(Nc2ccccc2O)C1=O [TSI-04] | > 10 µM and 16.3 µM | 7.79 µM | > 20 µM | > 20 µM
COc1ccc(N2C(=O)C(Cl)=C(Oc3ccccc3OC)C2=O)cc1 [TSI-05] | > 20 µM | > 20 µM | 7.58 µM | > 20 µM
CC(C)OC(=O)c1ccc(N2C(=O)C(Cl)=C(N3CCOCC3)C2=O)cc1 [TSI-06] | > 20 µM | > 20 µM | > 20 µM | > 20 µM
COC(=O)c1ccc(N2C(=O)C(Cl)=C(Nc3ccc(S(N)(=O)=O)cc3)C2=O)cc1 [TSI-08] | > 20 µM | > 20 µM | > 20 µM | > 20 µM
COC(=O)c1ccc(N2C(=O)C(Cl)=C(Cl)C2=O)cc1 [TSI-09] | 3.5 µM | 10.1 µM | 11.6 µM | > 20 µM
